Measurements: US12077503B2, “Substituted cyclic amides and their use as herbicides” (FMC CORPORATION, priority 2015, dated 2024)

Columns and labels:
Format in all cases: in vivo
[1] = test system: Galium (catchweed bedstraw, Galium aparine); test: Test A postemergence
Outline: (§1)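 Seeds sprayed preemergence with a directed soil spray, or plants at 2 to 10 cm height and one- to two-leaf stage sprayed postemergence, with test chemicals in a non-phytotoxic solvent mixture containing surfactant, in loam soil–sand blend. Injury rated visually against untreated controls after about 10 d in greenhouse, 0 (no effect) to 100 (complete control).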

[2] = test system: Kochia (Kochia scoparia); test: Test A postemergence
Outline: as §1

[3] = test system: pigweed (Amaranthus retroflexus); test: Test A postemergence
Outline: as §1

[4] = test system: corn (Zea mays); test: Test A postemergence
Outline: as §1

[5] = test system: blackgrass (Alopecurus myosuroides); test: Test A postemergence
Outline: as §1

[6] = test system: ragweed (common ragweed, Ambrosia elatior); test: Test A postemergence
Outline: as §1

[7] = test system: ryegrass, Italian (Italian ryegrass, Lolium multiflorum); test: Test A postemergence
Outline: as §1

[8] = test system: wheat (Triticum aestivum); test: Test A postemergence
Outline: as §1

[9] = test system: barnyardgrass (Echinochloa crus-galli); test: Test A postemergence
Outline: as §1

[10] = test system: giant foxtail (Setaria faberii); test: Test A postemergence
Outline: as §1

[11] = test system: sedge, umbrella (small-flower umbrella sedge, Cyperus difformis); test: Test B flooded paddy test; conditions: Flood, 250 g ai/ha; 0 to 100 scale where 0 is no effect and 100 is complete control; 13 to 15 d
Outline: (§2)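 Flooding to 3 cm over soil accompanied treatment, which consisted of adding compound to the standing water around 2-leaf plants; depth was then maintained. Visual assessment versus controls followed at 13 to 15 d (scale 0–100, 0 meaning no effect).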

[12] = test system: rice (Oryra sativa); test: Test B flooded paddy test; conditions: Flood, 250 g ai/ha; 0 to 100 scale where 0 is no effect and 100 is complete control; 13 to 15 d
Outline: as §2

[13] = test system: ducksalad (Heteranthera limosa); test: Test B flooded paddy test; conditions: Flood, 250 g ai/ha; 0 to 100 scale where 0 is no effect and 100 is complete control; 13 to 15 d
Outline: as §2

[14] = test system: barnyardgrass (Echinochloa crus-galli); test: Test B flooded paddy test; conditions: Flood, 250 g ai/ha; 0 to 100 scale where 0 is no effect and 100 is complete control; 13 to 15 d
Outline: as §2

[15] = test system: Kochia (Kochia scoparia); test: Test A preemergence; conditions: for Plant response rating, Kochia: 125 g ai/ha
Outline: as §1

[16] = test system: pigweed (Amaranthus retroflexus); test: Test A preemergence; conditions: for Plant response rating, Pigweed: 125 g ai/ha
[17] = test system: ragweed (common ragweed, Ambrosia elatior); test: Test A preemergence; conditions: for Plant response rating, Ragweed: 125 g ai/ha
Outline: as §1

[18] = test system: ryegrass, Italian (Italian ryegrass, Lolium multiflorum); test: Test A preemergence; conditions: for Plant response rating, Ryegrass, Italian: 125 g ai/ha
Outline: as §1

[19] = test system: barnyardgrass (Echinochloa crus-galli); test: Test A preemergence; conditions: for Plant response rating, Barnyardgrass: 125 g ai/ha
Outline: as §1

[20] = test system: giant foxtail (Setaria faberii); test: Test A preemergence; conditions: for Plant response rating, Foxtail, Giant: 125 g ai/ha
Outline: as §1

[21] = 125 g ai/ha, postemergence, visual rating after approx. 10 d, 0 to 100 scale (0 no effect, 100 complete control)
[22] = Postemergence, 500 g ai/ha, 0 to 100 scale where 0 is no effect and 100 is complete control
[23] = Preemergence, visual injury after approximately 10 d, 0 to 100 scale where 0 is no effect and 100 is complete control
[24] = Preemergence, 500 g ai/ha, visual injury approx. 10 d
[25] = 500 g ai/ha, postemergence, 0 to 100 scale, 0 no effect, 100 complete control
[26] = Postemergence, 125 g ai/ha, visual injury, 0 to 100 scale (0 no effect, 100 complete control), approx. 10 d
[27] = preemergence, 0 to 100 scale (0 no effect, 100 complete control)
[28] = Preemergence, 500 g ai/ha, 0 is no effect, 100 is complete control

O=C1NCC(c2cc(C(F)(F)F)cc(C(F)(F)F)c2)C1C(=O)Nc1ccccc1F (centres unmarked) [Compound 587]
Plant response rating, Galium [1, 21]: 0
Plant response rating, Galium [1, 22]: 0
Plant response rating, Kochia [2, 21]: 0
Plant response rating, Kochia [2, 22]: 20
Plant response rating, Pigweed [3, 21]: 0
Plant response rating, Pigweed [3, 22]: 0
Plant response rating, Corn [4, 21]: 40
Plant response rating, Corn [4, 22]: 70
Plant response rating, Blackgrass [5, 21]: 20
Plant response rating, Blackgrass [5, 22]: 60
Plant response rating, Ragweed [6, 21]: 0
Plant response rating, Ragweed [6, 22]: 0
Plant response rating, Ryegrass, Italian [7, 21]: 0
Plant response rating, Ryegrass, Italian [7, 22]: 30
Plant response rating, Wheat [8, 21]: 40
Plant response rating, Wheat [8, 22]: 60
Plant response rating, Barnyardgrass [9, 21]: 80
Plant response rating, Barnyardgrass [9, 22]: 90
Plant response rating, Foxtail, Giant [10, 21]: 80
Plant response rating, Foxtail, Giant [10, 22]: 90
Plant response rating, Sedge, Umbrella [11]: 0
Plant response rating, Rice [12]: 20
Plant response rating, Ducksalad [13]: 75
Plant response rating, Barnyardgrass [14]: 55
Plant response rating, Kochia [15, 23]: 0
Kochia plant response rating (0 to 100 scale, 0 is no effect, 100 is complete control) [15, 24]: 0
Plant response rating, Pigweed [16, 23]: 0
Plant response rating, Ragweed [17, 23]: 0
Ragweed plant response rating (0 to 100 scale, 0 is no effect, 100 is complete control) [17, 24]: 0
Plant response rating, Ryegrass, Italian [18, 23]: 20
Ryegrass, Italian plant response rating (0 to 100 scale, 0 is no effect, 100 is complete control) [18, 24]: 60
Plant response rating, Barnyardgrass [19, 23]: 90
Barnyardgrass plant response rating (0 to 100 scale, 0 is no effect, 100 is complete control) [19, 24]: 90
Plant response rating, Foxtail, Giant [20, 23]: 90
Foxtail, Giant plant response rating (0 to 100 scale, 0 is no effect, 100 is complete control) [20, 24]: 90

Cc1cccc(C2CNC(=O)C2C(=O)Nc2ccccc2F)c1 (racemic) [Compound 372]
Plant response rating, Galium [1, 25]: 20
Plant response rating, Galium [1, 26]: 0
Plant response rating, Kochia [2, 25]: 40
Plant response rating, Kochia [2, 26]: 0
Plant response rating, Pigweed [3, 25]: 30
Plant response rating, Pigweed [3, 26]: 20
Plant response rating, Corn [4, 25]: 20
Plant response rating, Corn [4, 26]: 0
Plant response rating, Blackgrass [5, 25]: 30
Plant response rating, Blackgrass [5, 26]: 20
Plant response rating, Ragweed [6, 25]: 0
Plant response rating, Ragweed [6, 26]: 0
Plant response rating, Ryegrass, Italian [7, 25]: 40
Plant response rating, Ryegrass, Italian [7, 26]: 20
Plant response rating, Wheat [8, 25]: 20
Plant response rating, Wheat [8, 26]: 0
Plant response rating, Barnyardgrass [9, 25]: 80
Plant response rating, Barnyardgrass [9, 26]: 80
Plant response rating, Foxtail, Giant [10, 25]: 70
Plant response rating, Foxtail, Giant [10, 26]: 50
Plant response rating, Sedge, Umbrella [11]: 0
Plant response rating, Rice [12]: 35
Plant response rating, Ducksalad [13]: 100
Plant response rating, Barnyardgrass [14]: 60
Plant response rating, Kochia [15, 27]: 0
Kochia plant response rating (0 to 100 scale) [15, 28]: 0
Plant response rating, Pigweed [16, 27]: 0
Pigweed plant response rating (0 to 100 scale) [16, 28]: 50
Plant response rating, Ragweed [17, 27]: 0
Ragweed plant response rating (0 to 100 scale) [17, 28]: 30
Plant response rating, Ryegrass, Italian [18, 27]: 0
Ryegrass, Italian plant response rating (0 to 100 scale) [18, 28]: 30
Plant response rating, Barnyardgrass [19, 27]: 90
Barnyardgrass plant response rating (0 to 100 scale) [19, 28]: 90
Plant response rating, Foxtail, Giant [20, 27]: 80
Foxtail, Giant plant response rating (0 to 100 scale) [20, 28]: 90
